Source: patent US20210260090A1, “USE OF SGLT-2 INHIBITORS FOR THE PREVENTION AND/OR TREAT-MENT OF CARDIAC DISEASES IN FELINES” (Boehringer Ingelheim Vetmedica GmbH, priority 2020, published 2021)

Columns and labels:
[1] = Plasma NEFA, cholesterol and BHB in cats before and after four week treatment (FIG. 1); format: in vivo, cat; settings: end of four week treatment period (post) vs pre, versus control
Excerpt: A significant treatment effect, an increase in blood lipids (NEFA, cholesterol) and plasma concentrations of BHB is noted.

[2] = tested on: cat patients with every possible phenotype of cardiomyopathy (HCM, RCM, UCM, DCM and ARVC); experiment: Clinical field study in client-owned cat patients with cardiomyopathy (Example 1); format: in vivo; settings: 1 mg/kg bodyweight orally once daily
Experimental: Client-owned cat patients (older than 1 year) with every possible phenotype of cardiomyopathy (HCM, RCM, UCM, DCM and ARVC) with or without clinical symptoms (e.g. congestive heart failure) are treated orally and once daily with a velagliflozin dosage of 1 mg/kg bodyweight.
During the study period the body weight, body condition score, blood pressure and the cardiovascular system (including heart rates, rhythm, presence of gallop sound or murmur and intensity) are examined on a regular basis during the visits at the site by the investigator. Additionally, thoracic radiographs (in the right lateral and dorso ventral view), echocardiography (including LV septal & free wall thickness, LVIDD, LVIDS (FS %), LA/Ao, LAD, ejection fraction) and electrocardiography are performed. In order to obtain an overview as complete as possible regular blood tests include a complete hematology (white blood cells (WBC), WBC differential, red blood cells, hemoglobin, hematocrit, Heinz bodies, platelet count), a biochemistry panel (total protein, Albumin, Globulin, Alkaline phosphatase (ALP), Alanine transaminase (ALT), Aspartate transaminase (AST), Total bilirubin, Creatinine, Blood urea nitrogen or urea (BUN), Calcium, Sodium, Potassium, Chloride, Phosphorus, Glucose, Cholesterol, Triglycerides, Fructosamine), the measurement of total T4, ketone bodies and cardiac biomarkers (Plasma NT-pro BNP, Cardiac troponin I, ST2).
Variables of interest are the number of events defined as cardiac death, cardiac related euthanasia and (re-) occurrence of congestive heart failure and the time to event (survival time of the cat patients).

[3] = tested on: cats with hypertrophic cardiomyopathy (HCM) and recent heart failure; experiment: Exploratory clinical field study of velagliflozin in cats (Example 2, case 101); format: in vivo; settings: for NT-proBNP: cardiac biomarker, screening (D −7) 177; for NT-proBNP / Grade of murmur / Resting respiratory rate / Heart rate / Point of maximum intensity / Presence of arrythmia / Presence of gallop sound / Timing of murmur / Presence of murmur / LA/Ao (left atrium to aorta ratio) / LAD max (mm) (Left atrium measured as right parasternal long-axis): cat 101, 1 mg/kg orally once per day; for BPM (mmHG): cat 101, 1 mg/kg bodyweight orally once per day, screening (D −7) 128; for Grade of murmur: screening (D −7) 4; for Resting respiratory rate: screening (D −7) 28; for Heart rate: screening (D −7) 140; for Point of maximum intensity: screening (D −7) left apical; for Presence of arrythmia / Presence of gallop sound: screening (D −7) no; for Timing of murmur: screening (D −7) systolic; for Presence of murmur: screening (D −7) yes; for LA/Ao (left atrium to aorta ratio) / LAD max (mm) (Left atrium measured as right parasternal long-axis): echocardiography; for LA/Ao (left atrium to aorta ratio): screening (D −7) 1.63; for LAD max (mm) (Left atrium measured as right parasternal long-axis): screening (D −7) 16.3
Excerpt: In an exploratory clinical field study (prospective, baseline controlled, open label and multi-site) under real world conditions, four cats were screened for eligibility for compassionate use of velagliflozin to treat cardiomyopathies and heart failure in cats. […] Due to non-compliance to treatment regime of one pet owner only one cat remained in the study over the complete planned time period of 90 days. Clinical symptoms (evaluated in a physical examination according to Good Veterinary Practice), echocardiographic parameters (always done by the same person at each visit and according to the ACVIM consensus statement guidelines for the classification, diagnosis, and management of cardiomyopathies in cats), blood parameters (evaluated by IDEXX Bioresearch Laboratories, Germany), number of events (re-occurrence of heart failure, cardiac related death or euthanasia) and time to event in days were documented at each visit on the respective Case Report Form.
Case 101 was a 10 years old, female spayed Maine Coon cat, diagnosed with hypertrophic cardiomyopathy (HCM) and previous congestive heart failure.
LA (Left atrium dimension measured as right parasternal short-axis); Ao (Aortic root diameter); LA/Ao, left atrium to aorta ratio; IVSd (interventricular septal end diastolic dimension, i.e. the thickness of the interventricular septum); LAD (Left atrium measured as right parasternal long-axis)

[4] = compared to placebo on top of standard of care
[5] = cat 101, treatment period Day 1 until Day 90, 1 mg/kg orally once per day

For N#Cc1ccc([C@@H]2O[C@H](CO)[C@@H](O)[C@H](O)[C@H]2O)cc1Cc1ccc(C2CC2)cc1 [velagliflozin, Velagliflozin], the plasma cholesterol [1] was “increase”, the “plasma concentrations of beta-hydroxybutyrat (BHB)” value [1] was “increase” and the “plasma non-esterified fatty acids (NEFA)” value [1] was “increase”. The “clinical parameters (e.g. appetite, activity level and breathing)” value ([2]; compared to placebo on top of SoC) was “improve significantly”, the survival time [2, 4] was “significant and clinically relevant prolongation” and the “time to event (cardiac death/euthanasia and (re-)occurrence of congestive heart failure)” value [2, 4] was “significant and clinically relevant prolongation”. The “NT-proBNP” value ([3]; Visit 2 (D 45)) was 104 pmol/L, the “NT-proBNP” value ([3]; Visit 3 (D 90)) was 39 pmol/L and the “BPM (mmHG)” value ([3]; Visit 2 (D 45)) was 136 mmHG. For the same compound, the “BPM (mmHG)” value ([3]; Visit 3 (D 90)) was 124 mmHG, the Grade of murmur ([3]; Visit 2 (D 45)) was 3 and the Resting respiratory rate ([3]; Visit 2 (D 45)) was 34. The Heart rate ([3]; Visit 2 (D 45)) was 180, the “Point of maximum intensity” value ([3]; Visit 2 (D 45)) was “left apical” and the Presence of arrythmia ([3]; Visit 2 (D 45)) was “no”. For the same compound, the “Presence of gallop sound” value ([3]; Visit 2 (D 45)) was “no”, the Timing of murmur ([3]; Visit 2 (D 45)) was “systolic” and the Presence of murmur ([3]; Visit 2 (D 45)) was “yes”. It also gave a Grade of murmur ([3]; Visit 3 (D 90)) of 2, a Resting respiratory rate ([3]; Visit 3 (D 90)) of 34 and a Heart rate ([3]; Visit 3 (D 90)) of 176. The “Point of maximum intensity” value ([3]; Visit 3 (D 90)) was “left apical”, the Presence of arrythmia ([3]; Visit 3 (D 90)) was “no” and the “Presence of gallop sound” value ([3]; Visit 3 (D 90)) was “no”. For the same compound, the Timing of murmur ([3]; Visit 3 (D 90)) was “systolic”, the Presence of murmur ([3]; Visit 3 (D 90)) was “yes” and the “echocardiographic parameters (Table 2), cardiac biomarker (Table 3) and abnormal heart murmur over the treatment period” value ([3]; cat 101, D −7 to D 90) was “improved continuously”. For the same compound, the “general health at study termination” value ([3]; cat 101, end of 90 day study) was “good general health”, the adverse event [3, 5] was “no adverse event” and the “re-occurrence of heart failure or pulmonary oedema” value [3, 5] was “no heart failure or pulmonary oedema re-occurred”. For the same compound, the “LA/Ao (left atrium to aorta ratio)” value ([3]; Visit 2 (D 45)) was 1.36, the “LAD max (mm) (Left atrium measured as right parasternal long-axis)” value ([3]; Visit 2 (D 45)) was 13.8 mm and the “LA/Ao (left atrium to aorta ratio)” value ([3]; Visit 3 (D 90)) was 1.07. The “LAD max (mm) (Left atrium measured as right parasternal long-axis)” value ([3]; Visit 3 (D 90)) was 12.6 mm.
